The source of these data is patent publication US9328099B2, “Cyanomethylpyrazole carboxamides as janus kinase inhibitors” (Merck Sharp & Dohme Corp., priority 2011, dated 2016).

For one assay, the target named is JAK1 (Homo sapiens (Human), UniProt P23458). Put plainly: Jak Biochemical HTRF Assay, JAK1. An excerpt: (§1) Jak Biochemical HTRF Assay Protocol
(§2) Subsequent reagent additions employed an Agilent Bravo.
A general note: In TR-FRET formats the signal depends on donor and acceptor labels being close together.

Another assay addresses JAK2 (Homo sapiens (Human), UniProt O60674). Put plainly: Jak Biochemical HTRF Assay, JAK2. Conditions: HTRF biochemical assay, GST-tagged catalytic domain; top concentration tested […].
Excerpt: as §1, §2

Where [1] appears, read: HTRF biochemical assay, GST-tagged catalytic domain, top concentration tested […], read-out: JAK1 IC50.

Where two headings read alike, the source gives them in different places.

Chain of JAK2 (O60674 849-1124): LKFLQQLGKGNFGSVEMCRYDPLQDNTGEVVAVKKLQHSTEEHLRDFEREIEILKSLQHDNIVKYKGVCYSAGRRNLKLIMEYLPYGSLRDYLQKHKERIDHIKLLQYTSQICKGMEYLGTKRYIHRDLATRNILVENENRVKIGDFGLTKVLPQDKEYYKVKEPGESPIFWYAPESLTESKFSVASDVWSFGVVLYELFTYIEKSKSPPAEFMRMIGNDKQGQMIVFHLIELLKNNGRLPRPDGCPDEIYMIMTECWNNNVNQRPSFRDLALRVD
Chain of JAK1 (P23458 875-1153): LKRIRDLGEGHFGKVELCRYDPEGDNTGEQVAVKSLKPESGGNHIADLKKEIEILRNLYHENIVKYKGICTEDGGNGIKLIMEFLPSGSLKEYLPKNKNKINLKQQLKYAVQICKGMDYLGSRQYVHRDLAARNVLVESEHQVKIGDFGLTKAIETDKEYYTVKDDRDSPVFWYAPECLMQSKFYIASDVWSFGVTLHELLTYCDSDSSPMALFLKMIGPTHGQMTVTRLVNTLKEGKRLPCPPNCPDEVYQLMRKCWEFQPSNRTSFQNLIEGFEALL

One may read the IC50 as the midpoint of a concentration-inhibition curve. On to `N#CCC1(n2cc(C(N)=O)c(Nc3ccccc3)n2)CCN(C/C=C/c2ccccc2)CC1` [Example 21-17, 1-{4-(cyanomethyl)-1-[(2E)-3-phenylprop-2-en-1-yl]piperidin-4-yl}-3-(phenylamino)-1H-pyrazole-4-carboxamide], for which the IC50 at JAK1 (setting [1]) was 19 nM; at JAK2 it was 208 nM.
For `CC(C)(C)OC(=O)N1CCC(CC#N)(n2cc(C(N)=O)c(Nc3cccc(-c4ccc(Cl)cc4)c3)n2)CC1` [Example 15-1, tert-Butyl 4-{4-carbamoyl-3-[(4′-chlorobiphenyl-3-yl)amino]-1H-pyrazol-1-yl}-4-(cyanomethyl)piperidine-1-carboxylate], in that order: 148 nM and 1480 nM.
Consider `CC(OC(=O)N1CCC(CC#N)(n2cc(C(N)=O)c(Nc3ccc(F)cc3)n2)CC1)C(F)(F)F` (centres unmarked) [Example 30-3, 1,1,1-trifluoropropan-2-yl 4-(4-carbamoyl-3-(4-fluorophenylamino)-1H-pyrazol-1-yl)-4-(cyanomethyl)piperidine-1-carboxylate], for which the figures for the concentration for half-maximal inhibition (IC50) on JAK1 (setting [1]) and at JAK2 were 0.8 nM and 28 nM, respectively.
Turning to `N#CCC1(n2cc(C(N)=O)c(Nc3ccccc3)n2)CN(C(=O)OCc2ccncc2)C1` [Example 30-66, pyridin-4-ylmethyl 3-[4-carbamoyl-3-(phenylamino)-1H-pyrazol-1-yl]-3-(cyanomethyl)azetidine-1-carboxylate], the half-maximal inhibitory concentration (IC50) on JAK1 (setting [1]) was 19 nM; against JAK2 it was 353 nM.
For `Cc1ncc(CN2CCC(CC#N)(n3cc(C(N)=O)c(Nc4ccnc(F)c4)n3)CC2)s1` [Example 22-15, 1-{4-(cyanomethyl)-1-[(2-methyl-1,3-thiazol-5-yl)methyl]piperidin-4-yl}-3-[(2-fluoropyridin-4-yl)amino]-1H-pyrazole-4-carboxamide], in that order: 1 nM and 18 nM.
For `Cc1ccc(NC(=O)N2CC(CC#N)(n3cc(C(N)=O)c(Nc4ccccc4)n3)C2)c(C)c1` [Example 38-19, 1-{3-(cyanomethyl)-1-[(2,4-dimethylphenyl)carbamoyl]azetidin-3-yl}-3-(phenylamino)-1H-pyrazole-4-carboxamide], in that order: 23 nM and 334 nM.
For `CC(O)c1ccc(Nc2nn(C3(CC#N)CCN(C(=O)OC(C)(C)C)CC3)cc2C(N)=O)cn1` (centres unmarked) [Example 9-7, tert-butyl 4-(4-carbamoyl-3-(6-(1-hydroxyethyl)pyridin-3-ylamino)-1H-pyrazol-1-yl)-4-(cyanomethyl)piperidine-1-carboxylate], in that order: 0.5 nM and 2 nM.
Turning to `Cc1ccc(NC(=O)N2CC(CC#N)(n3cc(C(N)=O)c(Nc4ccccc4)n3)C2)cc1` [Example 38-6, 1-{3-(cyanomethyl)-1-[(4-methylphenyl)carbamoyl]azetidin-3-yl}-3-(phenylamino)-1H-pyrazole-4-carboxamide], the IC50 amounted to 2 nM on JAK1 (setting [1]) and 69 nM on JAK2.
`CC(C)NC(=O)N1CCC(CC#N)(n2cc(C(N)=O)c(Nc3ccccc3)n2)CC1` [Example 38-46, 4-[4-Carbamoyl-3-(phenylamino)-1H-pyrazol-1-yl]-4-(cyanomethyl)-N-(1-methylethyl)piperidine-1-carboxamide]: the half-maximal inhibitory concentration (IC50) worked out at 2 nM on JAK1 (setting [1]) and 59 nM at JAK2.
For `Cc1c(Cl)cccc1NC(=O)N1CC(CC#N)(n2cc(C(N)=O)c(Nc3ccccc3)n2)C1` [Example 38-22, 1-{1-[(3-chloro-2-methylphenyl)carbamoyl]-3-(cyanomethyl)azetidin-3-yl}-3-(phenylamino)-1H-pyrazole-4-carboxamide], in that order: 19 nM and 249 nM.
As to `N#CCC1(n2cc(C(N)=O)c(Nc3ccnc(F)c3)n2)CCN(C(=O)OCC2CC2)CC1` [Example 30-49, Cyclopropylmethyl 4-{4-carbamoyl-3-[(2-fluoropyridin-4-yl)amino]-1H-pyrazol-1-yl}-4-(cyanomethyl)piperidine-1-carboxylate], the IC50 on JAK1 (setting [1]) was determined as 0.3 nM; at JAK2, 18 nM.
The like results for `N#CCC1(n2cc(C(N)=O)c(Nc3ccnc(F)c3)n2)CCN(C(=O)OCC(F)(F)F)CC1` [Example 30-1, 2,2,2-Trifluoroethyl 4-{4-carbamoyl-3-[(2-fluoropyridin-4-yl)amino]-1H-pyrazol-1-yl}-4-(cyanomethyl)piperidine-1-carboxylate] were, in that order, 0.2 nM and 8 nM.
The like results for `N#CCC1(n2cc(C(N)=O)c(Nc3ccccc3)n2)CCN(C(=O)c2cccc(N3CCOCC3)c2)CC1` [Example 34-28, 1-(4-(cyanomethyl)-1-[(3-morpholin-4-ylphenyl)carbonyl]piperidin-4-yl}-3-(phenylamino)-1H-pyrazole-4-carboxamide] were, in that order, 92 nM and 1050 nM.
For `N#CCC1(n2cc(C(N)=O)c(Nc3ccc(S(=O)(=O)C(F)F)cc3)n2)CCC(NCC(F)(F)F)CC1` (stereo not drawn) [Example 40-85, Cis or trans 1-{1-(cyanomethyl)-4-[(2,2,2-trifluoroethyl)amino]cyclohexyl}-3-({4-[(difluoromethyl)sulfonyl]phenyl}amino)-1H-pyrazole-4-carboxamide], in that order: 0.02 nM and 0.2 nM.
In the case of `N#CCC1(n2cc(C(N)=O)c(Nc3ccnc(F)c3)n2)CCC(NCC(F)F)CC1` (stereo not drawn) [Example 40-106, Cis or trans 1-{1-(cyanomethyl)-4-[(2,2-difluoroethyl)amino]cyclohexyl}-3-[(2-fluoropyridin-4-yl)amino]-1H-pyrazole-4-carboxamide], the IC50 against JAK1 (JAK1 IC50) turned out to be 4 nM; on JAK2 it was 31 nM.
Consider `N#CCC1(n2cc(C(N)=O)c(Nc3cccnc3)n2)CCN(C(=O)OCC(F)(F)F)CC1` [Example 10-7, 2,2,2-trifluoroethyl 4-(4-carbamoyl-3-(pyridin-3-ylamino)-1H-pyrazol-1-yl)-4-(cyanomethyl)piperidine-1-carboxylate], for which the IC50 came to 0.2 nM on JAK1 (setting [1]) and 4 nM at JAK2.
For `CCCc1ccc(CN2CCC(CC#N)(n3cc(C(N)=O)c(Nc4ccccc4)n3)CC2)cc1` [Example 21-22, 1-[4-(cyanomethyl)-1-(4-propylbenzyl)piperidin-4-yl]-3-(phenylamino)-1H-pyrazole-4-carboxamide], in that order: 72 nM and 888 nM.
For `Cc1ccc(CN2CCC(CC#N)(n3cc(C(N)=O)c(Nc4ccccc4)n3)CC2)cc1C` [Example 21-28, 1-[4-(cyanomethyl)-1-(3,4-dimethylbenzyl)piperidin-4-yl]-3-(phenylamino)-1H-pyrazole-4-carboxamide], the IC50 was 39 nM at JAK1 (setting [1]) and 453 nM against JAK2.
The like results for `N#CCC1(n2cc(C(N)=O)c(Nc3ccc(F)cc3)n2)CCN(C(=O)OC2COC2)CC1` [Example 30-18, oxetan-3-yl 4-{4-carbamoyl-3-[(4-fluorophenyl)amino]-1H-pyrazol-1-yl}-4-(cyanomethyl)piperidine-1-carboxylate] were, in that order, 2 nM and 44 nM.
In the case of `COc1cccc(COC(=O)N2CC(CC#N)(n3cc(C(N)=O)c(Nc4ccccc4)n3)C2)c1` [Example 30-70, 3-methoxybenzyl 3-[4-carbarnoyl-3-(phenylamino)-1H-pyrazol-1-yl]-3-(cyanomethyl)azetidine-1-carboxylate], the figures for the IC50 at JAK1 (setting [1]) and against JAK2 were 21 nM and 423 nM, respectively.
With `CNC(=O)c1ccc(Nc2nn(C3(CC#N)CCN(C(=O)OC(C)(C)C)CC3)cc2C(N)=O)cc1` [Example 9-4, tert-Butyl 4-[4-(aminocarbonyl)-3-({4-[(methylamino)carbonyl]phenyl}amino)-1H-pyrazol-1-yl]-4-(cyanomethyl)piperidine-1-carboxylate], the IC50 was 0.1 nM on JAK1 (setting [1]) and 2 nM against JAK2.
With `CSCCCN1CCC(CC#N)(n2cc(C(N)=O)c(Nc3ccccc3)n2)CC1` [Example 21-15, 1-{4-(cyanomethyl)-1-[3-(methylsulfanyl)propyl]piperidin-4-yl}-3-(phenylamino)-1H-pyrazole-4-carboxamide], the IC50 was found to be 12 nM at JAK1 (setting [1]) and 242 nM at JAK2.
For `N#CCC1(n2cc(C(N)=O)c(Nc3ccnc(F)c3)n2)CCN(Cc2cccc(F)n2)CC1` [Example 22-32, 1-{4-(cyanomethyl)-1-[(6-fluoropyridin-2-yl)methyl]piperidin-4-yl}-3-[(2-fluoropyridin-4-yl)amino]-1H-pyrazole-4-carboxamide], the IC50 at JAK1 (setting [1]) turned out to be 2 nM; against JAK2, 83 nM.
The like results for `N#CCC1(n2cc(C(N)=O)c(Nc3ccnc(F)c3)n2)CCC(NCc2cccc(F)c2)CC1` (stereo not drawn) [Example 41-24, Cis or trans 1-{1-(cyanomethyl)-4-[(3-fluorobenzyl)amino]cyclohexyl}-3-[(2-fluoropyridin-4-yl)amino]-1H-pyrazole-4-carboxamide] were, in that order, 26 nM and 1030 nM.
The like results for `N#CCC1(n2cc(C(N)=O)c(Nc3ccccc3)n2)CCN(C(=O)C2CC2)CC1` [Example 34-1, 1-[4-(Cyanomethyl)-1-(cyclopropylcarbonyl)piperidin-4-yl]-3-(phenylamino)-1H-pyrazole-4-carboxamide] were, in that order, 1 nM and 16 nM.
For `CCC(=O)N1CCC(CC#N)(n2cc(C(N)=O)c(Nc3ccccc3)n2)CC1` [Example 33-1, 1-[4-(Cyanomethyl)-1-propanoylpiperidin-4-yl]-3-(phenylamino)-1H-pyrazole-4-carboxamide], in that order: 2 nM and 26 nM.
Take `N#CCC1(n2cc(C(N)=O)c(Nc3ccc(F)cc3)n2)CCN(c2cc(F)ccn2)CC1` [Example 3-44, 1-[4-(cyanomethyl)-1-(4-fluoropyridin-2-yl)piperidin-4-yl]-3-[(4-fluorophenyl)amino]-1H-pyrazole-4-carboxamide]: the IC50 came to 0.2 nM on JAK1 (setting [1]) and 6 nM at JAK2.
For `CCS(=O)(=O)N1CCC(CC#N)(n2cc(C(N)=O)c(Nc3ccccc3)n2)CC1` [Example 37-3, 1-[4-(cyanomethyl)-1-(ethylsulfonyl)piperidin-4-yl]-3-(phenylamino)-1H-pyrazole-4-carboxamide], in that order: 1 nM and 12 nM.
